Target: T1, human FAAH (Homo sapiens, UniProt O00519)
T1 construct: host or cells: COS-7 cells, transient transfection; 13,000 g membrane fraction solubilised in 1% Triton X-100
T1 sequence (O00519 1-579): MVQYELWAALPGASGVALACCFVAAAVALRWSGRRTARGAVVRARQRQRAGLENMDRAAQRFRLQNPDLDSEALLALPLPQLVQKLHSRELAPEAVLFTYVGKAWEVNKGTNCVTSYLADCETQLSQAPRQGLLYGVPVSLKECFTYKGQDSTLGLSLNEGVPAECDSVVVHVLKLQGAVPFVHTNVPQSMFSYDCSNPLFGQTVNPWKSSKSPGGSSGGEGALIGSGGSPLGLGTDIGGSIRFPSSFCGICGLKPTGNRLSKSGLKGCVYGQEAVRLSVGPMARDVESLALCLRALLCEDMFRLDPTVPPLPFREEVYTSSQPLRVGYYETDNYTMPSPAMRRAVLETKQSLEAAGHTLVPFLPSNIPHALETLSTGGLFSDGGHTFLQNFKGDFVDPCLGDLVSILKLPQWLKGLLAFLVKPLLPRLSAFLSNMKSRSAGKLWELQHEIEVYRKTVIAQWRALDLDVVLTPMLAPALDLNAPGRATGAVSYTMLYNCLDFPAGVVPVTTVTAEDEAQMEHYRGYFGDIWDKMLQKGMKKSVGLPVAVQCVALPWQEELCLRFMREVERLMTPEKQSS
Assay: Inhibition of human FAAH (AMC arachidonoyl amide fluorescence assay)
Format: biochemical
Settings: inhibitor preincubated 30 minutes at room temperature; 20 μM AMC arachidonoyl amide; 4 hours; read-out: Activity (Ki, inhibitors of human FAAH)
Description: Human FAAH Preparation: COS-7 cells were split the day before, 1:5 into 150 mm x […] cell culture dishes (Corning Inc., Cat. No. 430599). Transient transfection took place at 30-40% confluency according to FuGENE 6 Transfection Reagent (Roche, Cat. No. 11814 443 001).
Transfection Procedure: The FuGENE transfection 6 reagent (45 uL) was added to 1410 μL of media (DMEM, serum free without pen/strep) in a 15 mL conical tube and incubated at room temp for 5 minutes, followed by the addition of FAAH plasmid DNA (15 μg) (OriGene Cat. No. TC119221, Genbank Accession No. NM_001441.1, 0.67 ug/uL) and a further incubation of 15 minutes at room temperature. The resulting solution was added into one dish of 30-40% confluent COS-7 cells in a drop-wise manner. The COS-7 cell dish was subsequently incubated for 48 hours. The cells are then harvested.
Harvest procedure: Media was aspirated from the dishes and the cells rinsed with 10 mL PBS. The PBS was removed and 3 mL of PBS added to the dish. The dish was scraped to resuspend the cells, and the subsequent cell suspension collected into a 15 mL conical tube. The cells were pelleted by centrifugation at 1200 rpm for 5 minutes in a bench top centrifuge. PBS was removed and the cell pellet snap frozen in liquid nitrogen and stored at −80° C.
COS-7 cells —FAAH purification: • (1) Fractionation: Frozen cell pellets from transient transfections were thawed on ice and resuspended in 12.5 mM Hepes pH 8.0, 100 mM NaCl, 1 mM EDTA (10 mL/0.2 g cell pellet). The pellets were dounce homogenized and then sonicated to produce cell extract. The cell extract was subsequently centrifuged at 1000 g to remove cellular debris. The pellet was discarded and the supernatant centrifuged at 13,000 g for 20 minutes. The pellet contained membrane bound FAAH. The supernatant was discarded and the pellet resolubilized. • (2) Re-solubilization: The fraction of interest, (13,000 g, membrane fraction) was re-suspended in 2.3 mL re-suspension buffer (20 mM Hepes pH 7.8, 10% v/v Glycerol, 1 mM EDTA, 1% Triton X-100) and the sample incubated on ice for 1 hour and then centrifuged to remove any particulate matter. The supernatant containing solubilized human FAAH was aliquoted and snap frozen in liquid nitrogen and stored at −80° C. until use. • (3) Characterization: Protein Concentration determined by Bradford assay. • SDS gel and Western blot to confirm presence of FAAH • FAAH activity assay • Km determination-96-well assay • Linear dependence—96-well assay • Standard compound Ki determination—384-well assay
Human FAAH assay; Experimental Protocol: A 0.1 mg/mL Human FAAH solution was made up in FAAH reaction buffer, and 24 ul pipeted into a 384 well plate. To this was added 1 μL of a 3 fold serially diluted inhibitor from a DMSO stock solution. The FAAH solution and inhibitor were incubated for 30 minutes at room temperature. The FAAH reaction was initiated by the addition of 25 μL of 40 μM AMC Arachidonoyl Amide in FAAH reaction buffer, yielding a final reaction human FAAH preparation concentration of 0.05 mg/ml and AMC-Arachidonoyl substrate concentration of 20 μM, reaction volume 50 μL. The reaction was allowed to proceed for 4 hours at room temperature. The reaction was stopped by the addition of 25 μL 12 μM a-ketoheterocycle (Cayman Chemicals, catalogue #10435). The microtiter plate was read in the envision plate reader.
The raw fluorescence was plotted on the y axis and the inhibitor concentration on the x axis to give a dose response inhibition curve. The data was fitted to a single site competitive inhibition equation, fixing the Km for the human enzyme to 12 μM and 9 μM respectively.

Ki [nM] | SMILES
≤ 100 | Cn1nccc1-c1ccc(OC2=NOC(C)(c3ccc(OC(F)(F)F)cc3)C2)cn1 (racemic) [I-241]
≤ 100 | FC(F)(F)Oc1ccc(C2CC(Oc3ccc(-c4ccc[nH]4)nc3)=NO2)cc1 (racemic) [I-173]
≤ 100 | FC(F)(F)Oc1ccc(C2CC(Oc3ccc(-c4nnco4)cc3)=NO2)cc1 (racemic) [I-201]
100 to 1000 | Cc1ccc(Oc2ccc(C3CC(Br)=NO3)cc2)nn1 (single isomer, unassigned) [I-18]
≤ 100 | NC(=O)c1cccc(-c2cncc(OC3=NOC(c4ccc(OC(F)(F)F)cc4)C3)c2)c1 (racemic) [I-73]
≥ 1000 | BrC1=NO[C@H](Cc2ccccc2)C1 (single isomer, unassigned) [I-48]
100 to 1000 | CNC(=O)c1ccc([C@H]2CC(Br)=NO2)cc1 (racemic) [I-204]
≤ 100 | FC(F)(F)C1(c2ccc(Oc3ccccc3)cc2)CC(Oc2cncnc2)=NO1 (racemic) [I-131]
≤ 100 | Cc1nnc(-c2cc(F)cc(OC3=NOC(c4ccc(OC(F)(F)F)cc4)C3)c2)o1 (racemic) [I-224]
≥ 1000 | CC(C)(C)OC(=O)Nc1ccc(OC2=NOC(c3ccc(Oc4ccccc4)cc3)C2)cn1 (racemic) [I-92]
≥ 1000 | O=C(O)c1ccc(SC2=NOC(c3ccc(OC(F)(F)F)cc3)C2)cc1 (racemic) [I-251]
≤ 100 | Cc1nnc(-c2ccc(OC3=NOC(c4ccc(Oc5ccccc5)cc4)C3)cn2)o1 (racemic) [I-155]
≤ 100 | FC(F)(F)Oc1ccc(C2CC(Oc3cccc(-c4nnco4)c3)=NO2)cc1 (racemic) [I-258]
100 to 1000 | FC1(F)Oc2ccc([C@H]3CC(Oc4cncnc4)=NO3)cc2O1 (racemic) [I-127]
≤ 100 | COC(=O)c1ccc(OC2=NO[C@@H](c3ccc(Br)cc3)C2)cn1 (racemic) [I-149]
≤ 100 | Fc1cc(OC2=NOC(c3ccc(OC(F)(F)F)cc3)C2)cc(-c2nnco2)c1 (racemic) [I-225]
≤ 100 | Cc1cc(-c2ccc(OC3=NOC(c4ccc(OC(F)(F)F)cc4)C3)cn2)n(C)n1 (racemic) [I-190]

Ki [nM] | SMILES
≤ 100 | FC(F)(F)Oc1ccc(C2CC(Oc3ccc(-c4ccn[nH]4)nc3)=NO2)cc1 (racemic) [I-192]
≤ 100 | O=C(O)c1ccc(OC2=NOC(c3ccc(Oc4ccccc4)cc3)C2)cn1 (racemic) [I-110]
≤ 100 | O=C(c1ccc([C@H]2CC(Br)=NO2)cc1)N1CCCCC1 (racemic) [I-208]
100 to 1000 | O=C(NCc1ccccc1)c1ccc([C@H]2CC(Oc3ccc(C(=O)O)nc3)=NO2)cc1 (racemic) [I-215]
≤ 100 | Cc1ccc(OC2=NOC(c3ccc(Oc4ccccc4)cc3)C2)cn1 (single isomer, unassigned) [I-40]
≤ 100 | FC(F)(F)Oc1ccc(C2CC(Oc3cncnc3)=NO2)cc1 (racemic) [I-112]
≤ 100 | BrC1=NOC(c2ccc(Oc3cccnc3)cc2)C1 (single isomer, unassigned) [I-12]
≤ 100 | FC(F)(F)c1ccc(C2CC(Oc3cccc(-c4nnco4)c3)=NO2)cc1 (racemic) [I-217]
≤ 100 | O=S(=O)(c1ccc([C@H]2CC(Br)=NO2)cc1)N1CCCC1 (racemic) [I-211]
≤ 100 | CS(=O)(=O)c1ccc(OC2=NOC(c3ccc(Oc4ccccc4)cc3)C2)cc1 (single isomer, unassigned) [I-30]
100 to 1000 | CN(C)C(=O)c1ccc(OC2=NOC(c3ccc(OC(F)(F)F)cc3)C2)cn1 (racemic) [I-108]
≥ 1000 | c1ccc(Oc2ccc(C3CC(n4cncn4)=NO3)cc2)cc1 (single isomer, unassigned) [I-34]
100 to 1000 | N#Cc1ccc(OC2=NOC(c3ccc(OC(F)(F)F)cc3)C2)cn1 (racemic) [I-178]
100 to 1000 | Clc1ccccc1C1CC(Br)=NO1 (single isomer, unassigned) [I-5]
100 to 1000 | FC(F)(F)Oc1ccc(C2CC(Oc3ccc(-c4nnn[nH]4)cc3)=NO2)cc1 (racemic) [I-175]
100 to 1000 | FC(F)(F)c1ccc(C2CC(Oc3cncnc3)=NO2)cc1 (racemic) [I-168]

From US9149465B2, “Isoxazolines as inhibitors of fatty acid amide hydrolase” (Infinity Pharmaceuticals, Inc., priority 2009, dated 2015)
